≈ marks a conversion by molar mass, not a printed value.
Legend:
Format in all cases: functional
Staphylococcus aureus [1] = assay: Antibacterial activity against methicillin-resistant Staphylococcus aureus ATCC 43300 assessed as inhibition of visible bacterial growth incubated for 24 hrs by CLSI based broth microdilution method
Staphylococcus aureus [2] = assay: Antibacterial activity against Staphylococcus aureus ATCC 25923 assessed as inhibition of visible bacterial growth incubated for 24 hrs by CLSI based broth microdilution method
Enterococcus faecalis = assay: Antibacterial activity against Enterococcus faecalis assessed as inhibition of visible bacterial growth incubated for 24 hrs by CLSI based broth microdilution method
Escherichia coli = assay: Antibacterial activity against Escherichia coli ATCC 25922 assessed as inhibition of visible bacterial growth incubated for 24 hrs by CLSI based broth microdilution method
Streptococcus agalactiae = assay: Antibacterial activity against Streptococcus agalactiae assessed as inhibition of visible bacterial growth incubated for 24 hrs by CLSI based broth microdilution method
Mycoplasma = assay: Antibacterial activity against Mycoplasma F3 assessed as inhibition of visible bacterial growth incubated for 24 hrs by CLSI based broth microdilution method

Row | SMILES | MIC (Staphylococcus aureus [1]) [µg/mL] | MIC (Staphylococcus aureus [2]) [µg/mL] | MIC (Enterococcus faecalis) [µg/mL] | MIC (Escherichia coli) [µg/mL] | MIC (Streptococcus agalactiae) [µg/mL] | MIC (Mycoplasma) [µg/mL]
1 | C=C[C@]1(C)C[C@@H](OC(=O)CSc2nc(OC(=O)CC(C)C)cs2)[C@]2(C)[C@H](C)CC[C@]3(CCC(=O)[C@H]32)[C@@H](C)[C@@H]1O | 0.5 (≈ 0.865 µM) | 1 (≈ 1.73 µM) | > 32 | > 32 | 0.125 (≈ 0.216 µM) | 0.125 (≈ 0.216 µM)
2 | C=C[C@]1(C)C[C@@H](OC(=O)CSc2nc(OC(=O)C(CC)CCCC)cs2)[C@]2(C)[C@H](C)CC[C@]3(CCC(=O)[C@H]32)[C@@H](C)[C@@H]1O (some centres undefined) | 0.5 (≈ 0.807 µM) | 2 (≈ 3.23 µM) | > 32 | > 32 | 0.25 (≈ 0.403 µM) | 0.5 (≈ 0.807 µM)
3 | C=C[C@]1(C)C[C@@H](OC(=O)CSc2nc(OC(=O)C(C)(C)CC)cs2)[C@]2(C)[C@H](C)CC[C@]3(CCC(=O)[C@H]32)[C@@H](C)[C@@H]1O | 0.5 (≈ 0.845 µM) | 0.25 (≈ 0.422 µM) | > 32 | > 32 | 0.063 (≈ 0.106 µM) | 0.125 (≈ 0.211 µM)
4 | C=C[C@]1(C)C[C@@H](OC(=O)CSc2nc(OC(=O)c3cccc(C)c3)cs2)[C@]2(C)[C@H](C)CC[C@]3(CCC(=O)[C@H]32)[C@@H](C)[C@@H]1O | 0.5 (≈ 0.817 µM) | 0.5 (≈ 0.817 µM) | > 32 | > 32 | 0.063 (≈ 0.103 µM) | 0.5 (≈ 0.817 µM)
5 | C=C[C@]1(C)C[C@@H](OC(=O)CSc2nc(OC(=O)CCCCC)cs2)[C@]2(C)[C@H](C)CC[C@]3(CCC(=O)[C@H]32)[C@@H](C)[C@@H]1O | 1 (≈ 1.69 µM) | 1 (≈ 1.69 µM) | > 32 | > 32 | 0.125 (≈ 0.211 µM) | 0.5 (≈ 0.845 µM)
6 | CCC[C@@H]1C[C@@H](C(=O)N[C@@H]([C@H]2O[C@H](SC)[C@H](O)[C@@H](O)[C@H]2O)[C@H](C)Cl)N(C)C1 [CLINDAMYCIN] | > 32 | > 32 | 16 (≈ 37.6 µM) | 32 (≈ 75.3 µM) | > 32 | 1 (≈ 2.35 µM)
7 | C=C[C@]1(C)C[C@@H](OC(=O)CSc2nc(OC(=O)c3ccccc3)cs2)[C@]2(C)[C@H](C)CC[C@]3(CCC(=O)[C@H]32)[C@@H](C)[C@@H]1O | 1 (≈ 1.67 µM) | 0.5 (≈ 0.836 µM) | > 32 | > 32 | 0.063 (≈ 0.105 µM) | 0.25 (≈ 0.418 µM)
8 | C=C[C@]1(C)C[C@@H](OC(=O)CSc2nc(OC(=O)c3cccc(Br)c3)cs2)[C@]2(C)[C@H](C)CC[C@]3(CCC(=O)[C@H]32)[C@@H](C)[C@@H]1O | 0.5 (≈ 0.739 µM) | 2 (≈ 2.96 µM) | > 32 | > 32 | 0.063 (≈ 0.0931 µM) | 0.25 (≈ 0.369 µM)
9 | C=C[C@]1(C)C[C@@H](OC(=O)CSc2nc(OC(=O)CC(C)(C)C)cs2)[C@]2(C)[C@H](C)CC[C@]3(CCC(=O)[C@H]32)[C@@H](C)[C@@H]1O | 0.5 (≈ 0.845 µM) | 0.5 (≈ 0.845 µM) | > 32 | > 32 | 0.125 (≈ 0.211 µM) | 0.25 (≈ 0.422 µM)

Reference: ChEMBL document CHEMBL6103592, “Discovery of novel thiazole-pleuromutilin derivatives with potent antibacterial activity” (Eur J Med Chem, 2025)
